These results are taken from patent US10202351B2, “Pyrazolyl derivatives as pest control agents” (BAYER ANIMAL HEALTH GMBH, priority 2015, dated 2019).

Holding throughout (type): in vivo
One assay deals with Boophilus microplus. Nature of the assay: Boophilus microplus injection test. Conditions: application rate 20 μg/animal, after 7 days, laying of fertile eggs. On the procedure: Solvent: dimethyl sulfoxide […] The animals are transferred into dishes and kept in a climate-controlled room. Efficacy is assessed after 7 days by laying of fertile eggs. Eggs which are not visibly fertile are stored in a climate-controlled cabinet until the larvae hatch after about 42 days.

For a further assay, the system named is Lucilia cuprina. The assay is described as follows: Lucilia cuprina test. Particulars: application rate 100 ppm, L1 larvae, kill after 2 days. On the procedure: (§1) Solvent: dimethyl sulfoxide
(§2) To produce a suitable preparation of active compound, 10 mg of active compound are mixed with 0.5 ml of dimethyl sulfoxide, and the concentrate is diluted with water to the desired concentration.
About 20 L1 larvae of the Australian sheep blowfly (Lucilia cuprina) are transferred into a test vessel containing minced horsemeat and the active compound formulation of the desired concentration.
After 2 days, the kill in % is determined. 100% means that all the larvae have been killed; 0% means that no larvae have been killed.

In another assay the test system is Phaedon cochleariae. Nature of the assay: Phaedon cochleariae spray test. Conditions: application rate 100 g/ha, larvae on Chinese cabbage leaf discs, after 7 days. The procedure:
Solvent: 78.0 parts by weight of acetone • • 1.5 parts by weight of dimethylformamide Emulsifier: alkylaryl polyglycol ether […] To produce further test concentrations, the formulation is diluted with emulsifier-containing water. Discs of Chinese cabbage leaves (Brassica pekinensis) are sprayed with an active ingredient formulation of the desired concentration and, after drying, populated with larvae of the mustard beetle (Phaedon cochleariae).

The next assay has as its system Ctenocephalides felis. The assay is described as follows: Ctenocephalides felis oral test. Particulars: application rate 100 ppm in citrated cattle blood, kill after 2 days. From the text:
Solvent: dimethyl sulfoxide […] Dilution with citrated cattle blood gives the desired concentration. About 20 unfed adult cat fleas (Ctenocephalides felis) are placed into a chamber which is closed at the top and bottom with gauze. A metal cylinder whose bottom end is closed with parafilm is placed onto the chamber. The cylinder contains the blood/active ingredient formulation, which can be imbibed by the fleas through the parafilm membrane.

In another assay the test system is Spodoptera frugiperda. Nature of the assay: Spodoptera frugiperda spray test. Particulars: application rate 100 g/ha, caterpillars on maize leaf discs, after 7 days. The procedure:
Solvent: 78.0 parts by weight of acetone • • 1.5 parts by weight of dimethylformamide Emulsifier: alkylaryl polyglycol ether […] To produce further test concentrations, the formulation is diluted with emulsifier-containing water. Leaf discs of maize (Zea mays) are sprayed with an active compound formulation of the desired concentration and, after drying, populated with caterpillars of the armyworm (Spodoptera frugiperda).

The next assay has as its system Musca domestica. The assay is described as follows: Musca domestica test. Conditions: application rate 100 ppm, adult houseflies, kill after 2 days. On the procedure: as §1, §2
Vessels containing a sponge treated with sugar solution and the active ingredient formulation of the desired concentration are populated with 10 adult houseflies (Musca domestica)).
After 2 days, the kill in % is determined. 100% means that all of the flies have been killed; 0% means that none of the flies have been killed.

`COc1cc(C(=O)Nc2ccc(F)c(-c3cnn(-c4c(C)cc(C(F)(C(F)(F)F)C(F)(F)F)cc4C(F)(F)F)c3)c2)ccc1F` [Example 2-5]: in the assay on Boophilus microplus, the efficacy is 100%.
Still for that read-out and setting: with `COc1ccc(C(=O)Nc2ccc(F)c(-c3cnn(-c4c(C)cc(C(F)(C(F)(F)F)C(F)(F)F)cc4C(F)(F)F)c3)c2)cc1F` [Example 2-6] the figure was 80%.
With `COc1cc(C(=O)Nc2ccc(F)c(-c3cnn(-c4c(C)cc(C(F)(C(F)(F)F)C(F)(F)F)cc4C(F)(F)F)c3)c2)ccc1C#N` [Example 2-8], the results for the efficacy in the assay on Lucilia cuprina, with Boophilus microplus and in the assay on Phaedon cochleariae were 90%, 100% and 83%, respectively.
In the case of `Cc1cc(C(F)(C(F)(F)F)C(F)(F)F)cc(C(F)(F)F)c1-n1cc(-c2cc(NC(=O)c3ccsc3)ccc2F)cn1` [Example 2-9], the efficacy with Lucilia cuprina was determined as 100%; in the assay with Boophilus microplus it was 100%; in the assay on Ctenocephalides felis it was 95%.
`Cc1cc(C(F)(C(F)(F)F)C(F)(F)F)cc(C(F)(F)F)c1-n1cc(-c2cc(NC(=O)c3ccccc3)ccc2F)cn1` [Example 2-10]: the efficacy in the assay with Boophilus microplus was 100%.
Turning to `Cc1cc(C(F)(C(F)(F)F)C(F)(F)F)cc(C(F)(F)F)c1-n1cc(-c2cc(NC(=O)c3cnco3)ccc2F)cn1` [Example 2-11], the efficacy in the assay on Lucilia cuprina, in the assay with Spodoptera frugiperda, with Boophilus microplus, with Phaedon cochleariae and with Ctenocephalides felis was 100% throughout.
`Cc1ncc(-c2cnn(-c3c(Cl)cc(C(F)(C(F)(F)F)C(F)(F)F)cc3Cl)c2)cc1NC(=O)c1ccncc1` [Example 18]: the efficacy in the assay on Spodoptera frugiperda was 100%; in the assay on Phaedon cochleariae, 83%.
With `Cc1cc(C(F)(C(F)(F)F)C(F)(F)F)cc(C)c1-n1cc(-c2ccc(N(C)C)c(NC(=O)c3ccc(F)cc3)c2)cn1` [Example 21], the efficacy with Spodoptera frugiperda, with Boophilus microplus and in the assay with Ctenocephalides felis was 100% throughout.
With `Cc1cc(C(F)(C(F)(F)F)C(F)(F)F)cc(C(F)(F)F)c1-n1cc(-c2ccc(F)c(NC(=O)c3cccs3)c2F)cn1` [Example 26], the efficacy in the assay with Lucilia cuprina, with Spodoptera frugiperda, in the assay with Boophilus microplus, in the assay on Phaedon cochleariae and with Ctenocephalides felis was 100% in each case.
Consider `COc1cc(C(=O)Nc2c(F)ccc(-c3cnn(-c4c(C)cc(C(F)(C(F)(F)F)C(F)(F)F)cc4C(F)(F)F)c3)c2F)ccc1F` [Example 27], for which the efficacy in the assay with Lucilia cuprina worked out at 90%; in the assay with Boophilus microplus, 100%; in the assay with Ctenocephalides felis, 100%.
`COc1cc(C(=O)Nc2cc(-c3cnn(-c4c(C)cc(C(F)(C(F)(F)F)C(F)(F)F)cc4C(F)(F)F)c3)ccc2F)ccc1F` [Example 28]: the efficacy in the assay with Phaedon cochleariae is listed as 100%.
For `CCOc1cc(C(=O)Nc2cc(-c3cnn(-c4c(C)cc(C(F)(C(F)(F)F)C(F)(F)F)cc4C(F)(F)F)c3)ccc2F)ccc1F` [Example 29], the efficacy is 100% with Boophilus microplus and 80% in the assay with Ctenocephalides felis.
For the compound `COc1cc(C(=O)Nc2cc(-c3cnn(-c4c(C)cc(C(F)(C(F)(F)F)C(F)(F)F)cc4C(F)(F)F)c3)ccc2F)ccc1C#N` [Example 35], the efficacy in the assay on Spodoptera frugiperda and in the assay with Phaedon cochleariae was 100% in each case.
Regarding `Cc1cc(C(F)(C(F)(F)F)C(F)(F)F)cc(C(F)(F)F)c1-n1cc(-c2ccc(N(C)C)c(NC(=O)C3(C)CC3)c2)cn1` [Example 36], the efficacy with Lucilia cuprina, in the assay with Spodoptera frugiperda, in the assay on Boophilus microplus, in the assay with Phaedon cochleariae and in the assay on Ctenocephalides felis was 100% throughout.
`Cc1cc(C(F)(C(F)(F)F)C(F)(F)F)cc(C(F)(F)F)c1-n1cc(-c2ccc(N(C)C)c(NC(=O)c3ccsc3)c2)cn1` [Example 37]: the efficacy with Lucilia cuprina, with Spodoptera frugiperda, in the assay with Boophilus microplus, with Phaedon cochleariae and with Ctenocephalides felis was 100% in each case.
On to `Cc1cc(C(F)(C(F)(F)F)C(F)(F)F)cc(C(F)(F)F)c1-n1cc(-c2ccc(F)c(N(C)C(=O)c3ccc(F)nc3)c2F)cn1` [Example 41], for which the efficacy with Musca domestica is given as 100%; with Lucilia cuprina it was 100%; in the assay on Spodoptera frugiperda it was 83%; with Boophilus microplus, 100%; in the assay with Phaedon cochleariae, 100%; in the assay with Ctenocephalides felis, 100%.
Take `COc1cc(C(=O)Nc2cc(-c3cnn(-c4c(C)cc(C(F)(C(F)(F)F)C(F)(F)F)cc4C(F)(F)F)c3)ccc2F)ccc1C` [Example 47]: the figures for the efficacy in the assay on Boophilus microplus and with Ctenocephalides felis were 100% and 80%, respectively.
For the compound `Cc1cc(C(F)(C(F)(F)F)C(F)(F)F)cc(C(F)(F)F)c1-n1cc(-c2ccc(F)c(N(C)C(=O)c3ccc(F)nc3)c2)cn1` [Example 48], the efficacy with Musca domestica, in the assay with Lucilia cuprina, with Spodoptera frugiperda, with Boophilus microplus, with Phaedon cochleariae and in the assay on Ctenocephalides felis was 100% each time.
For `Cc1cc(C(F)(C(F)(F)F)C(F)(F)F)cc(C(F)(F)F)c1-n1cc(-c2ccc(F)c(NC(=O)c3ccc(Cl)nc3)c2)cn1` [Example 49], the efficacy in the assay with Musca domestica, with Lucilia cuprina, in the assay with Spodoptera frugiperda, in the assay with Phaedon cochleariae and with Ctenocephalides felis was 100% throughout.
Take `Cc1ccc(C(=O)Nc2cc(-c3cnn(-c4c(C)cc(C(F)(C(F)(F)F)C(F)(F)F)cc4C(F)(F)F)c3)ccc2F)cc1C` [Example 52]: the efficacy in the assay on Musca domestica and in the assay with Boophilus microplus was 100% in each case.
As to `Cc1cc(C(=O)Nc2cc(-c3cnn(-c4c(C)cc(C(F)(C(F)(F)F)C(F)(F)F)cc4C(F)(F)F)c3)ccc2F)ccc1F` [Example 53], the efficacy with Musca domestica, with Boophilus microplus and with Ctenocephalides felis was 100% throughout.
`COc1ccc(C(=O)Nc2cc(-c3cnn(-c4c(C)cc(C(F)(C(F)(F)F)C(F)(F)F)cc4C(F)(F)F)c3)ccc2F)cc1F` [Example 55]: the efficacy in the assay on Lucilia cuprina is reported as 80%; in the assay with Boophilus microplus it was 100%; with Phaedon cochleariae it was 100%; in the assay with Ctenocephalides felis, 100%.
For `Cc1cc(C(F)(C(F)(F)F)C(F)(F)F)cc(C(F)(F)F)c1-n1cc(-c2ccc(F)c(NC(=O)c3ccc(Cl)c(F)c3)c2)cn1` [Example 56], the efficacy with Lucilia cuprina, in the assay on Boophilus microplus and in the assay on Ctenocephalides felis was 100% in each case.
As to `COc1cc(C(=O)Nc2cccc(-c3cnn(-c4c(C)cc(C(F)(C(F)(F)F)C(F)(F)F)cc4C(F)(F)F)c3)c2F)ccc1F` [Example 71], the efficacy with Spodoptera frugiperda, in the assay on Boophilus microplus, with Phaedon cochleariae and with Ctenocephalides felis was 100% throughout.
As for `COc1ccc(C(=O)Nc2cccc(-c3cnn(-c4c(C)cc(C(F)(C(F)(F)F)C(F)(F)F)cc4C(F)(F)F)c3)c2F)cc1F` [Example 72], the efficacy in the assay on Lucilia cuprina amounted to 100%; in the assay with Boophilus microplus, 100%; in the assay on Phaedon cochleariae it was 100%; in the assay with Ctenocephalides felis, 95%.
On to `COc1cccc(C(=O)Nc2cccc(-c3cnn(-c4c(C)cc(C(F)(C(F)(F)F)C(F)(F)F)cc4C(F)(F)F)c3)c2F)c1` [Example 73], for which the efficacy in the assay on Lucilia cuprina, with Spodoptera frugiperda, in the assay on Boophilus microplus, in the assay with Phaedon cochleariae and in the assay with Ctenocephalides felis was 100% each time.
Take `COc1cc(C(=O)Nc2cccc(-c3cnn(-c4c(C)cc(C(F)(C(F)(F)F)C(F)(F)F)cc4C(F)(F)F)c3)c2F)ccc1C#N` [Example 74]: the efficacy with Lucilia cuprina, in the assay on Spodoptera frugiperda, in the assay with Boophilus microplus and in the assay on Phaedon cochleariae was 100% each time.
Take `Cc1cc(C(F)(C(F)(F)F)C(F)(F)F)cc(C(F)(F)F)c1-n1cc(-c2cccc(NC(=O)c3ccsc3)c2F)cn1` [Example 75]: the efficacy in the assay on Lucilia cuprina worked out at 80%; with Boophilus microplus, 100%; in the assay with Ctenocephalides felis, 95%.
For the compound `Cc1cc(C(F)(C(F)(F)F)C(F)(F)F)cc(C(F)(F)F)c1-n1cc(-c2cccc(NC(=O)c3cccs3)c2F)cn1` [Example 76], the efficacy in the assay with Lucilia cuprina, in the assay on Spodoptera frugiperda, with Boophilus microplus, in the assay on Phaedon cochleariae and in the assay with Ctenocephalides felis was 100% in each case.
